Here are results for 11 molecules from patent US6828321B2, “1,2,4-Benzotriazine oxides as radiosensitizers and selective cytotoxic agents” (priority 1986, dated 2004).

Like-named read-outs stand apart in the source and are kept apart here. Where only a bound is given, the exact number is not on record here.

Data set [1] relates to hypoxic cells in culture. The data set is described as follows: Radiosensitivity in vitro: drug concentration giving a sensitizer enhancement ratio of 1.6. It counts as cell-based. The following applies: concentration of drug necessary to produce a sensitizer enhancement ratio of 1.6 of hypoxic cells in culture. An excerpt:
The results of assays to determine the concentration of drug necessary to produce a sensitizer enhancement ratio of 1.6 of hypoxic cells in culture are as follows: […]

Data set [2] is described as follows: Polarographic half-wave reduction potential. The conditions noted are these: Britton & Robinson pH 7.4 buffer, dropping mercury electrode. The class given is physicochemical.
Data set [3] deals with HA-1 cells. The data set is described as follows: Hypoxic versus aerobic cytotoxicity from survival curves of HA-1 cells. The following applies: for cytotoxicity against hypoxic HA-1 tumor cells in vitro compared to 22 / RHT (Relative Hypoxic Cytoxicity): hypoxic conditions; for RHT (Relative Hypoxic Cytoxicity): ratio of equitoxic concentrations of 22:analog; for RHT (Relative Hypoxic Cytoxicity) / HCR (Hypoxic Cytoxicity Ratio): HA-1 cells; for HCR (Hypoxic Cytoxicity Ratio): ratio of equitoxic concentrations of each analog, hypoxic:aerobic conditions. It counts as cell-based.

Data set [4] in a line: Solubility. It counts as physicochemical.
A short description of data set [5]: Octanol-water partition coefficient (method of Fujita et al.). The class given is physicochemical. The conditions noted are these: pH 7.4 buffer.
The nature of data set [6]: Determination of LD50. The class given is in vivo. The following applies: mouse, in vivo; Balb/c female mice 3 months of age; ip (or iv) injection. Here is the method: (§1) LD50 is determined in BALB/c female mice (weighing 20-25 g) following intraperitoneal (ip) injection, unless the compound tested has low lipophilicity and is very soluble, wherein intravenous (iv) administration is used. LD50 values at 1, 2, 5, and 60 days are determined by administering graded doses of the drug dissolved in physiological saline immediately prior to injection.

The test system of data set [7] is BALB/c female mice. The data set is described as follows: Determination of LD50. The following applies: Balb/c female mice 3 months of age; ip (or iv) injection. The class given is in vivo. The method, then: as §1
For data set [8], the system named is aerobic and hypoxic cells in culture (human, mouse, and hamster). The data set is described as follows: Cytotoxicity tests on aerobic and hypoxic cells in culture. It counts as cell-based.
Experimental: The cells in spinner flasks were gassed for one hour at 37° C. with either air or nitrogen containing 5% CO2 prior to adding the specified amounts of the drug.
The subject of data set [9] is SCCVII tumor. The data set is described as follows: Fractionated radiotherapy of SCCVII tumors (8 x 2.5 Gy in four days). The conditions noted are these: SR 2508 1000 mg/kg before each dose; for effect on growth delay of irradiated tumors: compound 22 0.08 mmole/kg alone before or with HDZ after irradiation, FIG. 6; for effect on radiation response, clonogenic tumor cell survival: compound 22 0.08 mmole/kg alone or with HDZ, FIG. 5.
Text: Our protocol was to use eight doses of 2.5 Gy/dose in four days (irradiating 2×/day). […] We used two different types of controls. […] We assayed the efficacies of the treatments using clonogenic cell survival and also regrowth delay.

In data set [10] the test system is Chinese hamster ovary (CHO) cells. The data set is described as follows: Aerobic radiosensitization of CHO cells by hypoxic pre- or post-treatment. The following applies: for cell survival after drug treatment alone: 20 μM, hypoxic. It counts as cell-based. The text has this: The sensitization was predominantly a change in the slope of the radiation survival curve. Do decreased from 1.34 Gy (95% confidence limits: 1.09-1.76 Gy) to 0.80 Gy (95% confidence limits: 0.73-0.88 Gy), based on least-squares regression analysis of pooled data for the exponential portions of the survival curves for control and treated cells. However, sensitization at low radiation doses was also readily apparent.

Data set [11] relates to SCCVII carcinomas. The data set is described as follows: In vivo assay for activity in combination with radiation. The following applies: fixed radiation dose 20 Gy, 2 hr after to 3 hr before drug injection; FIG. 2. On the set-up: species or system C3H mice.
Data set [12] concerns SCCVII tumor. The data set is described as follows: Enhanced tumor cell toxicity using hydralazine. The conditions noted are these: FIG. 3. The class given is in vivo, mice.
Experimental: For this assay, SCCVII carcinomas in female C3H mice weighing 20-25 g were used. These mice were bred under specific pathogen-free conditions and were 3-4 months old at the beginning of each experiment. The SCCVII tumor was grown intradermally in the flank from an inoculation of 2×10^5 tumor cells taken from the 2nd-8th in vitro passage of the tumor cells after removal from the previous in vivo tumor. Two tumors per mouse were implanted, and were used as subject tumors when they reached a volume of approximately 100 ml. At this point the tumors contained approximately 20% hypoxic cells.
The amount of cell killing was judged by survival rate of dissected and cultured tumor cells as follows. The tumor-bearing mice were killed 24 hr after irradiation, and tumors were dissected from the skin, cut into several pieces, and made into a fine brei by high-speed chopping with a razor blade attached to a jigsaw. The brei was added to 30 ml of Hank's buffered salt solution (HBSS) containing 0.02% DNase, 0.05% promase, and 0.02% collagenase. The suspension was stirred for 30 min at 37° C., filtered, and centrifuged at 1,600 rmp for 10 min at 4° C. […] Suitable dilutions of this serum plated into 60- or 100-mm polystyrene petri dishes (Lux Scientific Corp) in 5 or 15 ml of medium. After incubation for 13 days, the colonies were fixed and stained, and those containing 50 cells or more were counted. […]

By melting point is commonly meant the temperature of the solid-liquid transition. With `CCCCCCCCCCc1ccc2nc(N)n[n+]([O-])c2c1`, the melting point was 177 °C (dec.).

`NC(=O)c1ccc2nc(N)n[n+]([O-])c2c1` gave a melting point of 300 °C.

In the case of `CC(=NO)c1ccc2nc(N)n[n+]([O-])c2c1`, the melting point is 278 °C (dec.).

In the case of “6(7)-methoxy-3-amino-1,2,4-benzotriazine 1,4-dioxide”, in data set [1], the C1.6 result was “˜1.0 mM”.

Regarding `[O-][n+]1nc(O)[n+]([O-])c2ccccc21` [3-hydroxy-1,2,4-benzotriazine 1,4-dioxide], the C1.6 entry in data set [1] is “˜2.0 mM”.

`Nc1nc2ccc(Cl)cc2[n+]([O-])n1` [7-chloro-3-amino-1,2,4-benzotriazine 1-oxide]: the C1.6 in data set [1] is 3.3 mM.

Consider `Nc1n[n+]([O-])c2cc([N+](=O)[O-])ccc2[n+]1[O-]` [Compound 14, 7-nitro-3-amino-1,2,4-benzotriazine 1,4-dioxide], for which, in data set [2], the E1/2 is −133 mV. In data set [3], the “cytotoxicity against hypoxic HA-1 tumor cells in vitro compared to 22” value (from here on “cytotoxicity … compared to 22”) was “significantly enhanced cytotoxicity”, the “RHT (Relative Hypoxic Cytoxicity)” value was 2 and the “HCR (Hypoxic Cytoxicity Ratio)” value was 140.

By solubility is commonly meant how much of the substance goes into solution per volume. In general, logP refers to a log measure of how a compound divides between an organic and an aqueous phase. A low value points to a more hydrophilic compound. For the molecule `CCN(CC)CCCNc1n[n+]([O-])c2ccccc2[n+]1[O-]` [Compound 18a, 3-(3-N,N-diethylaminopropylamino)-1,2,4-benzotriazine 1,4-dioxide], the E1/2 in data set [2] was −348 mV. Also, the solubility in data set [4] (read-out: Solubility) is greater than 181 mM. The molecule further registered a log partition coefficient (logP) in data set [5] of -1.34. The LD50 in data set [6] came out at 250 µmol/kg. Besides, the “cytotoxicity … compared to 22” value in data set [3] was “significantly enhanced cytotoxicity”.

The term Log P denotes a log measure of how a compound divides between an organic and an aqueous phase. A high value points to higher lipophilicity. Molecule `CCN(CC)CCNc1n[n+]([O-])c2cc([N+](=O)[O-])ccc2[n+]1[O-].Cl` [Compound 21, 7-nitro-3-(2-N,N-diethylaminoethylamino)-1,2,4-benzotriazine 1,4-dioxide hydrochloride] displayed an E1/2 in data set [2] of −140 mV. Further, the solubility in data set [4] is 96.40 mM. Besides, the “Log P” value in data set [5] was −0.20. The LD50 in data set [7] stood at 0.40. For the same molecule, in data set [3], the “cytotoxicity … compared to 22” value was “significantly enhanced cytotoxicity”, the “RHT (Relative Hypoxic Cytoxicity)” value was 3 and the “HCR (Hypoxic Cytoxicity Ratio)” value is on record as 211.

For `Nc1n[n+]([O-])c2ccccc2[n+]1[O-]` [Compound 22, 3-amino-1,2,4-benzotriazine 1,4-dioxide], in data set [8], the “drug concentration required under hypoxia for equal cell killing, as share of the aerobic concentration” value is 1 to 2%. Moreover, the “effect on growth delay of irradiated tumors” value in data set [9] is “large increase in effect compared to radiation or drug alone”. Further, in data set [9], the “effect on radiation response, clonogenic tumor cell survival” value is reported as “large enhancement of the radiation response”. The “cell survival after drug treatment alone” value in data set [10] (1.0 h preirradiation exposure) is listed as “approximately 32%”; in data set [10] (1.5 h postirradiation treatment) it was 23%; in data set [10] (1.5 h preirradiation exposure), roughly 19%; in [10] (2.0 h preirradiation exposure), roughly 8%; in data set [10] (2.5 h preirradiation exposure) it was roughly 2%. In addition, the “Do of the radiation survival curve of treated cells” value in data set [10] (pooled data of treated cells, control 1.34 Gy, 95% confidence limits 0.73-0.88 Gy) came to 0.80 Gy. Moreover, the “tumor cell killing combined with radiation compared to radiation only” value in [11] is recorded as “enhanced cell killing compared to radiation only”. Moreover, the “factor by which survival was reduced” value in data set [12] (combination with hydralazine) is 10^3. Also, the “cell killing in the SCCVII tumor, agent alone” value in [12] (single agent) is on record as “neither hydralazine nor the aforementioned benzotriazine compound produced any significant cell killing”.

Regarding `O=C(Cn1ccnc1[N+](=O)[O-])NCCO` [SR 2508, reference compound], in data set [9], the “effect on growth delay of irradiated tumors” value was “no radiosensitizing effect” and the “effect on radiation response, clonogenic tumor cell survival” value is listed as “no effect”.
